Assay results taken from BindingDB's records for doi:10.3109/14756366.2011.590804 (University of Karachi, 2012).

These compounds were tested against Beta-glucuronidase (Escherichia coli (strain K12), UniProt P05804) (assay: β-Glucuronidase Inhibition Assay). Settings: pH 7; 37 °C.
Chain of Beta-glucuronidase (P05804 whole entry): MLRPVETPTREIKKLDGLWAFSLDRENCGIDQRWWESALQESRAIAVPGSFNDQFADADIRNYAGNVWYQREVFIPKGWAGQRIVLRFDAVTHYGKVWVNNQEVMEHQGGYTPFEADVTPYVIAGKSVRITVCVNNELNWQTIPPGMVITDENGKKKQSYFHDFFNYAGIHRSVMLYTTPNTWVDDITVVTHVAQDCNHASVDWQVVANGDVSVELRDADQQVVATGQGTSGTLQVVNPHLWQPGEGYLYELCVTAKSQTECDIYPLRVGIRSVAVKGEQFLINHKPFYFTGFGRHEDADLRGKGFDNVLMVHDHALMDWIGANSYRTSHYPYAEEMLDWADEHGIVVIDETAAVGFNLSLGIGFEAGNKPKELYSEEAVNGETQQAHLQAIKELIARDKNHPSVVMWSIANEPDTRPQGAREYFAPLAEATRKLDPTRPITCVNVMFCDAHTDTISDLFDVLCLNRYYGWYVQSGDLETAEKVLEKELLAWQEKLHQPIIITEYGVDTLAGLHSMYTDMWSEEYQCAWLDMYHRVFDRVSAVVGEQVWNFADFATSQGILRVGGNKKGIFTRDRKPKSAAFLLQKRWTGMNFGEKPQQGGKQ
Experimental: β-Glucuronidase inhibitory activity was evaluated by a biochemical assay, based on the measurement of the absorbance of p-nitrophenol at 405 nm, produced from the enzymatic hydrolysis of chromogenic substrate [Choudhary et al., Steroids, 74:1040-1044; Khan et al., Chem. Pharm. Bull., 50:1443-1446]. The reaction mixture, consisting of 5 μL of test compound solution, 185 μL of 0.1 M acetate buffer (pH 7.0) and 10 μL β-glucuronidase solution, was kept for 30 min at 37°C. The total reaction volume being 250 μL. 50 μL of p-nitrophenyl-β-D-glucuronide was added to each plate. A multiplate reader was used to read the absorbance at 405 nm.
For `C[C@]12CCC(=O)C=C1CC[C@@H]1[C@@H]2CC[C@]2(C)C(=O)CC[C@@H]12` [Androst-4-en-3,17-dione, 2], the IC50 was 430 µM.
Compound `C[C@]12CC[C@H]3[C@@H]([C@@H](O)CC4=C[C@@H](O)CC[C@@]43C)[C@@H]1CC[C@@H]2O` [Androst-4-ene-3β,7β,17β-triol (8)] has an IC50 of 191 µM.
`C[C@]12CC[C@H](O)C=C1C(=O)C[C@@H]1[C@@H]2CC[C@]2(C)C(=O)CC[C@@H]12` [Androst-4-ene-3β-ol-6,17-dione (7)] gave an IC50 of 222 µM.
Compound `C[C@]12CCC(=O)CC1CC[C@@H]1[C@@H]2CC[C@]2(C)C(=O)CC[C@@H]12` (some centres undefined) [Androstane-3,17-dione (2)] has an IC50 of 374 µM.
